Earlier results, collected in patent publication US9079157B2, “Protein removal agent” (Thermo Fisher Scientific Baltics, UAB, priority 2012, dated 2015).

Tested on: enzymes
Settings: referenced in the BRENDA database

SMILES	Number of inhibited enzymes
O=C(O)CC(O)(CC(=O)O)C(=O)O [citric acid]	203
O=C(O)CCCC(=O)O [glutaric, glutaric acid]	25
O=C(O)C(=O)O [oxalic, oxalic acid]	119

Continued, values first:

Number of inhibited enzymes	SMILES
10	O=C(O)CCCCC(=O)O [adipic, adipic acid]
63	O=C(O)CC(=O)O [malonic, malonic acid]
3	O=C(O)CCCCCC(=O)O [pimelic, pimelic acid]
0	O=C(O)CCCCCCC(=O)O [suberic, suberic acid]
115	O=C(O)CCC(=O)O [succinic, succinic acid]
